Results taken from article PMC9267955, “Antidiabetic, Antiglycation, and Antioxidant Activities of Ethanolic Seed Extract of Passiflora edulis and Piceatannol In Vitro” (Molecules, 2022).
Marks after values point to notes of the source that are not given here.

Tests used:
[1] = MGO capture using derivatization with OPD (HPLC); details: PESE 2 mg/mL, PIC 2 mM, AMG 2 mM; MGO 2 mM; 37 °C, 1 h
Protocol: MGO scavenging was tested using a described procedure, with slight modifications. The quantification of MGO was based on derivatization with OPD, leading to the formation of the product 2-methylquinoxyline (2-MQ). MGO and OPD were dissolved in phosphate buffer (50 mM, pH 7.4) to a concentration of 2 mM and 4 mM, respectively. […] The reaction system was composed of 125 μL of the MGO solution, 125 μL of phosphate buffer (negative control), or PESE incubated at 37 °C for 1 h. After 250 μL of the OPD solution was added, the tubes were kept for 30 min for the derivatization reaction between MGO and OPD to complete. Then, the chromatographic analysis was performed. All solutions were previously filtered (microfilter pore diameter 0.45 μm). […] The linear gradient for elution was: starting at 5% of solvent B, 0–3 min, 5 to 50% B; 3–16 min, isocratic in 50% B; 16–17 min, 50–90% B; 17–19 min, isocratic in 90% B and 19–19.5 min, 90–5% B. The derivatization product, 2-methylquinoxyline (2-MQ), was detected at 315 nm, with a retention time of 10 min. The percentage of trapping efficiency of MGO was calculated using the following equation: % trapping MGO = [100 − (peak area after adding sample/peak area without adding sample) × 100].

[2] = test system: amyloid fibrils of glycated BSA (BSA/MGO); assay: Inhibition of amyloid fibril formation, ThT assay (BSA/MGO); type: biochemical, bovine; details: highest obtained, PESE 200, PIC 200, AMG 100 µg/mL
Protocol: (§1) The BSA-MGO assay was based on those described before, with some modifications. This experiment is based on the formation of fluorescent AGEs from the middle stage of protein glycation. MGO (1.5 mM) and BSA (3 mg/mL) were dissolved separately in 0.05 M phosphate buffer (pH 7.4) containing NaCl (100 mM) and NaN3 (0.02% w/v). Then, 300 μL of MGO was incubated with samples at different concentrations (dissolved in a buffer containing 60% ethanol) for an hour at 37 °C, in the dark, with constant stirring. After BSA (3 mg/mL) was added to the reaction mixture and incubation time was extended to 48 h at 37 °C in darkness. The rest of the procedure was the same as that for the BSA-glucose/fructose model that is described above. The percentage of the AGE inhibition and IC50 was calculated as described in Section 3.3.1.
The fibrillar state of modified BSA was determined with ThT as previously described. ThT is a probe that binds directly to amyloid fibrils to give a strong fluorescent signal and thus can be used to quantify β-amyloid due to protein glycation. Basically, 30 μL of glycated protein (approx. 1 mg/mL), obtained as described previously, was mixed with 100 μL ThT reagent (10 μM ThT in 100 mM phosphate buffer, pH 7.0), and fluorescence was collected at excitation/emission wavelengths of 450/490 nm in a microplate reader (Infinite® 200 PRO, TECAN, Männedorf, Switzerland). […]

BSA/MGO fluorescent AGEs = assay: Inhibition of AGE formation, intermediate stage of glycation (BSA/MGO); type: biochemical, bovine; details: BSA/MGO model
Protocol: as §1

[3] = test system: BSA/fructose + glucose fluorescent AGEs; assay: Inhibition of AGE formation, initial stage of glycation (BSA/fructose + glucose); type: biochemical, bovine; details: BSA/fructose + glucose model, 7 days, 37 °C
Protocol: The formation of AGEs was measured after incubation of a system containing protein and carbohydrates. This assay was based on previous methods. The reaction system was obtained by adding 300 µL of plant extract or of the pure compound (at different concentrations), 150 µL D-fructose (200 mM), 150 µL of D-glucose (200 mM), and 300 µL of bovine serum albumin (BSA, 3 mg/mL) to a test tube. All these solutions, except plant extract, were dissolved in 0.05 M potassium phosphate buffer (pH 7.4) containing NaCl (100 mM) and NaN3 (0.02% w/v). The plant extract was prepared in a buffer containing 60% ethanol. The mixture was incubated in the dark at 37 °C for 7 days with constant stirring. After the incubation, 200 µL of the reaction mixture was transferred to a 96-well black plate, and fluorescent AGEs were measured using a microplate reader (Infinite® 200 PRO, TECAN, Männedorf, Switzerland) at λex = 360 and λem = 440 nm. […]. Aminoguanidine (AMG), a known AGE formation inhibitor, was used as a standard. The reaction mixture without inhibitors was used as a positive control. Color interference from the sample was eliminated by a sample control (buffer and sample). The fluorescence readings for the experimental treatment were blanked against extract blanks to eliminate the baseline fluorescence of the sample. The percentage of the AGE inhibition and IC50 was calculated as described in Section 3.3.1.

[4] = DPPH radical scavenging assay
Protocol: After incubation in the dark for 30 min, the absorbance was read at 516 nm, using a UV–Vis spectrophotometer (Agilent Technologies, Santa Clara, CA, USA). Results were expressed as the half-maximal inhibitory concentration (IC50) in μg/mL.

[5] = set-up: method as in PMID 31683151; details: compound 5 mM, MGO 5 mM; cited from earlier work
[6] = Superoxide anion radical scavenging activity
Protocol: The potential of the samples to scavenger superoxide anion radicals was determined, with minor modifications. […] Phosphate buffer (19 mM, pH 7.4) was used to dissolve NADH, NBT, and PMS. QCT was used as means of comparison. The experiment was conducted at 37 °C in a microplate reader (Infinite® 200 PRO, TECAN, Männedorf, Switzerland), and the absorbance was measured at 560 nm. The results were expressed as IC50 of extract solution in μg/mL.

Protocol for HOCl scavenging activity: Briefly, a freshly prepared HOCl solution, by adjusting the pH of a 1% solution of NaOCl to 6.2 with dropwise addition of diluted H2SO4, was diluted to 30 µM, using 100 mM phosphate buffer pH 7.4. […] QCT was used as means of comparison. Fluorescence assays were performed in a microplate reader (Infinite® 200 PRO, TECAN, Männedorf, Switzerland), at 37 °C, at wavelengths of 505 ± 10 nm and 530 ± 10 nm, for excitation and emission, respectively. The results were expressed as IC50 (μg/mL) of extract solution.

Compound	MGO capture percentage [5]	other results
N=C(N)NN [AMG, Aminoguanidine]	–	MGO trapping [1]: 99.6%; Inhibition of Amyloid Fibrils (%), MGO [2]: 30.3 ± 4.4 ^c %; Antiglycation IC50, MGO (BSA/MGO fluorescent AGEs): 50.4 ± 1.8 ^c μg/mL; Antiglycation IC50, Fructose + Glucose [3]: 25.5 ± 5.0 ^c μg/mL
O=c1c(O)c(-c2ccc(O)c(O)c2)oc2cc(O)cc(O)c12 [QCT, quercetin]	21.4%	DPPH• IC50 ([4]; 30 min): 4.8 ± 1.0 µg/mL; IC50 ([4]; data in parenthesis are in μM): 15.9 µM; HOCl IC50 (HOCl scavenging activity): 1.9 ± 0.3 µg/mL; O2•− IC50 [6]: 8.8 ± 0.3 µg/mL; IC50 ([6]; data in parenthesis are in μM, read-out: O2•− IC50 (in parenthesis) (converted)): 29.2 µM
O=c1cc(-c2ccc(O)cc2)oc2cc(O)cc(O)c12 [apigenin]	36.5%	–
COc1cc(-c2cc(=O)c3c(O)cc(O)cc3o2)ccc1O [chrysoeriol]	41.8%	–
O=c1c(-c2ccc(O)cc2)coc2cc(O)cc(O)c12 [genistein]	43.4%	–
O=c1c(O)c(-c2ccc(O)cc2)oc2cc(O)cc(O)c12 [kaempferol]	58.9%	–
O=c1cc(-c2ccc(O)c(O)c2)oc2cc(O)cc(O)c12 [luteolin]	40.7%	–
CC1OC(OCC2OC(Oc3c(-c4ccc(O)cc4)oc4cc(OC5OC(C)C(O)C(O)C5O)cc(O)c4c3=O)C(O)C(O)C2O)C(O)C(O)C1O (stereo not drawn) [robinin]	54.4%	–
C[C@@H]1O[C@@H](OC[C@H]2O[C@@H](Oc3c(-c4ccc(O)c(O)c4)oc4cc(O)cc(O)c4c3=O)[C@H](O)[C@@H](O)[C@@H]2O)[C@H](O)[C@H](O)[C@H]1O [rutin]	49.3%	–
procyanidins	46.3%	–
